In patent US20260308158A1, “TARGETING RNAS ASSOCIATED WITH TAUOPATHIES WITH SMALL MOLECULES” (University of Florida Research Foundation, Incorporated, priority 2023, published 2026):

Experiments:
[1] = system: MAPT exon 10 splicing in primary neurons from htau mice; experiment: 4R/3R MAPT mRNA by RT-qPCR in primary neurons from htau mice; format: cell-based, human MAPT in htau transgenic mouse neurons; conditions: 48 h
Protocol: RNA Isolation and Real-Time Quantitative PCR (RT-qPCR). HeLa cells were treated as described in the Luciferase Reporter assay to Study Exon 10 Alternative Splicing. LAN5 cells were seeded in 12-well plates at 0.2×10^6 cells per well, treated with compound or ASO, and incubated for 48 h. Compound stocks prepared in DMSO and ASO stocks prepared in water were diluted in growth medium and added to cells. Total RNA was extracted from cells and analyzed via RT-qPCR to determine levels of 3R and 4R tau mRNA. In brief, the cells were washed with 1×DPBS and then lysed in the well using 300 μL of Lysis Buffer provided in a Quick-RNA MiniPrep kit (Zymo Research), which was used to extract total RNA per the manufacturer's protocol including the on-column DNase I digestion. The concentration of total RNA was measured by NanoDrop 2000 (Thermo Fisher Scientific). Only samples with OD260/OD280>1.8 were carried forward for analysis. Reverse transcription (RT) was carried out on 200 ng of total RNA using a qScript cDNA synthesis kit (QuantaBio) in a total volume of 10 μL according to the manufacturer's protocol. An Applied Biosystems QS5 384-well PCR system was used to complete qPCR reactions with Power SYBR Green Master Mix (Life Technologies), 600 nM each primer (Table S3), 20 ng of cDNA (1 μL of the RT reaction), in a total volume of 33 μL. Technical triplicates (10 μL each) were aliquoted into 384-well qPCR plates (Applied biosystems, 4483285). Subsequent qPCR analysis was performed using an Applied Biosystems QS5 384-well PCR system (software v.1.3.0). 4R/3R ratio were analyzed using ΔΔCt method using Equation 2: […]
Isolation and Treatment of Primary Neurons from Humanized tau (hTau) Transgenic Mice. All animal studies were completed as approved by the Scripps Florida Institutional Animal Care and Use Committee. […]

[2] = system: WT mice; experiment: Nesting activity, WT mice; format: in vivo, mouse
Protocol: Nesting Activity. From Day 1 to Day 20, mice were individually housed and nesting material from the previous day was removed. An intact 3.0 g nestlet was placed within each cage. Around 15 h later, the resulting nest was photographed for qualitative scoring, and the untorn nestlet was weighed if present. All nest images and weights were analyzed by a blinded individual and based on published criteria.^43 In brief, nesting is scored on a rating scale of 1-5 where if the nestlet is over 90% intact, it is given a nestlet score is 1 (Poor; FIG. 4C). When the nestlet is partially torn but >50% remains, the nestlet score is 2; a score of 3 is assigned when 50-90% of the nestlet is torn but spread around the cage and no identifiable nest site is found (Medium; FIG. 4C). When more than 90% of the nestlet is torn and the nest is identifiable but flat, the nestlet score is 4. When a near perfect nest is built and the wall is higher than the mouse's body, it is assigned a nestlet score of 5 (Good; FIG. 4C).

`COc1cc(N)ncc1CCCN(C)CCCn1cnc2c3ccccc3n(C)c2c1=O` [Compound 2, 3-(3-((3-(6-amino-4-methoxypyridin-3-yl)propyl)(methyl)amino)propyl)-5-methyl-3,5-dihydro-4H-pyrimido[5,4-b]indol-4-one] was tested, and the “4R/3R ratio and PSI10” value [1] was “dose dependent reduction”, the “relative potency (4R/3R ratio and PSI10)” value [1] was “more potent than 1” and the “nesting behavior vs no treatment” value ([2]; 20 days, 100 mg/kg p.o. q.o.d.) was “no significant difference in nesting behavior”. The “nest score at Day 20” value ([2]; scale 1-5, 100 mg/kg p.o. q.o.d.) was 4.1±0.2 and the “average nest score over time” value ([2]; scale 1-5, over 20 days, 100 mg/kg p.o. q.o.d.) was 3.7-4.3.
